# Patent US9493421B2, “Acridinedione derivatives for treating pigmentation disorders and ageing of the skin” (PIERRE FABRE DERMO-COSMETIQUE, priority 2011, dated 2016)
# Several values for one entry are separate records, joined by “and”; a condition that tells them apart may be missing. Identical values can stand only once.
# What was measured:
# [1] = set-up: key: very good: 0.1 to 3.0; good: 3.01 to 50; average: 50.1 to 1000; poor: >1000; none: NEGATIVE; settings: reference products of the interpretation scale; cited from earlier work
# [2] = Test to study anti-oxidizing capability using chemiluminescence (Photochem Analytic Jena); type: biochemical; settings: quantity of sample needed for activity equivalent to 1 μg Trolox, superoxide anion trapping
# Protocol: This test is used to determine the anti-oxidizing capability of the molecules. It is a method which generates free radicals via photochemical signal. The intensity of oxidation is 1000 times higher than obtained under normal conditions.
# Detection is performed using chemiluminescence. This allows evaluation of water-soluble and liposoluble antioxidant molecules or extracts
# The results are expressed in equivalent quantity of vitamin C or Trolox (6-hydroxy-2,5,7,8-tetramethylchroman-2-carboxylic acid) respectively. Sensitivity is in the order of one nanomole.
# The anti-oxidizing activity studied in this test represents the capability of specifically trapping superoxide anions by chemiluminescence.
# The quantified results are expressed in Trolox equivalent (standard) or in “μg of product per 1 μg of Trolox”. This means that a quantity x of sample is needed to obtain activity equivalent to the activity detected with 1 μg of standard. It is the antioxidizing power in relation to a reference; this avoids having to take into account the concentrations tested.
# The superoxide radical: O2^∘^− is generated by photochemical reaction: L+hv(UV)+O2→L*O2→L^∘^++O2^∘^− • L*: luminol in the excited state L^∘+: luminol radical Signal Detection
# Part of the superoxide anions are inhibited by the antioxidants. The remaining free radicals are quantified by chemiluminescence. L^∘^++O2^∘^−→N2+AP*^2−→AP^2−+hv (luminescence)
# AP*^2−: aminophthalate in the excited state
# [3] = Log P (octanol/water partition coefficient); type: physicochemical
# Description: Log P, also called Log Kow, is a measurement of the differential solubility of chemical compounds in two solvents (octanol/water partition coefficient).
# Log P is equal to the logarithm of the ratio of the concentrations of the examined substance in octanol and in water. Log P=Log(Coct/Cwater). With this value it is possible to assess the hydrophilic or hydrophobic (lipophilic) nature of a molecule. If Log P is positive and very high, this means that the molecule under consideration is much more soluble in octanol than in water, which reflects its lipophilic nature, and conversely. A value of Log P=0 means that the molecule is distributed equally between the two phases and Coct=Cwater (C. Hansch, J. F. Quinlan, G. L. Lawrence, Linear free energy relationship between partition coefficients and the aqueous solubility of organic liquids, J. Org. Chem., 33 (1968), 347-350; C. Hansch, A. Leo, Exploring QSAR—Fundamentals and Applications in Chemistry and Biology, American Chemical Society, Washington, 1995; J. Sangster, Octanol—Water Partition Coefficients: Fundamentals and Physical Chemistry, Wiley, Chichester, 1997; W. Jorgensen, E. Duffy, Advanced Drug Delivery Reviews, (54), 2002, 355-366).
# [4] = tested on: B16-F10 cells; assay: Assay of melanin in B16-F10 cells (colorimetric, α-MSH stimulated); type: cell-based, murine; settings: Mus musculus, B16-F10, 72 h, 0.1 μM α-MSH, negative = inhibition, positive = stimulation, read-out: Melanin synthesis on B16
# Protocol: It is a test to measure the synthesis of melanin by colorimetric assay on a murine melanoma cell line: line B16-F10. With this test it is possible to evaluate the depigmenting or propigmenting property of active ingredients.
# The B16-F10 cells were seeded in 96-well plates in DMEM medium supplemented with FCS (foetal calf serum), and incubated 24 h at 37° C., 5% CO2. The cells were stimulated with 0.1 μM α-MSH (to stimulate melanin synthesis, the observed stimulation being about 150%) and treated 72 h with the active ingredients to be assayed. Each concentration of active ingredient was assayed at least in triplicate. Total melanin and intracellular melanin dissolved in lysis buffer were assayed by absorbance read-off at 405 nm. The total proteins were assayed in the lysate and the results expressed in mg melanin/mg proteins. Percentage activity was calculated as follows: […]
# A negative value indicates inhibition of the melanin synthesis and translates depigmenting activity of the compound, whereas a positive value indicates induced melanin synthesis and translates a propigmenting property of the molecule.
# • B16-F10 cell lines between P10 and P20 (murine melanocytes) (ATCC, CRL-6475); • reagents: DMEM without Phenol Red (GIBCOBRL, 118800-028), 200 mM glutamax-I supplement (GIBCOBRL, 35050-038), glucose (SIGMA, G7021), PBS (GIBCOBRL, 14190-094), foetal calf serum (Invitrogen, 10270-098), trypsin-EDTA (GIBCOBRL, 25300-054), NaOH (Sigma, S8045-500G), DMSO (Sigma, 471267-11), Nle, Phe-Melanocyte Stimulating Hormone (Sigma, M-8764), melanin (Sigma, M-0418), BCA-COPPER (SIGMA, B9643 and C2284), BSA (SIGMA, P0914) B) Test to Study Anti-Oxidizing Capability Using Chemiluminescence (Photochem Analytic Jena) Principle
Compound,logP [3],Activity (scale for interpretation of results) [1],μg sample per 1 μg of Trolox [2],also measured
O=C(O)CCCC[C@@H]1CCSS1 (racemic) [Lipoic acid],–,none,–,–
Cc1cc(C(C)(C)C)c(O)c(C(C)(C)C)c1 [BHT],–,good (3.01 to 50),–,–
N[C@@H](CS)C(=O)O [Cystein],–,average (50.1 to 1000),–,–
O=C1O[C@H]([C@@H](O)CO)C(O)=C1O [Vitamin C],–,very good (0.1 to 3.0),–,–
Albumin,–,poor (>1000),–,–

# Continued, in another order:
logP [3],Compound,Activity (scale for interpretation of results) [1],μg sample per 1 μg of Trolox [2],also measured
6.3,"CCCCCCCCCCCCN1C2=C(C(=O)CC(C)(C)C2)C(c2ccc(O)c(OC)c2)C2=C1CC(C)(C)CC2=O [Example 1, 10-dodecyl-9-(4-hydroxy-3-methoxyphenyl)-3,3,6,6-tetramethyl-3,4,6,7,9,10-hexahydroacridine-1,8(2H,5H)-dione]",–,2.45 μg sample per 1 μg of Trolox,activation at 2 µM ([4]; at 2 μM): -40%
5.21,"CCCCCCCCCCN1C2=C(C(=O)CC(C)(C)C2)C(c2ccc(O)c(O)c2)C2=C1CC(C)(C)CC2=O [Example 3, 10-decyl-9-(3,4-dihydroxyphenyl)-3,3,6,6-tetramethyl-3,4,6,7,9,10-hexahydroacridine-1,8(2H,5H)-dione]",–,0.015 μg sample per 1 μg of Trolox,activation at 20 µM [4]: -46%
5.34,"CCCCCCCCCCN1C2=C(C(=O)CC(C)(C)C2)C(c2cc(OC)c(O)c(OC)c2)C2=C1CC(C)(C)CC2=O [Example 7, 10-decyl-9-(4-hydroxy-3,5-dimethoxyphenyl)-3,3,6,6-tetramethyl-3,4,6,7,9,10-hexahydroacridine-1,8(2H,5H)-dione]",–,0.81 μg sample per 1 μg of Trolox,activation at 10 µM [4]: -56%
> 5,"CCCCCCCCCCCCN1C2=C(C(=O)CC(C)(C)C2)C(c2cc(C(C)(C)C)c(O)c(C(C)(C)C)c2)C2=C1CC(C)(C)CC2=O [Example 8, 10-dodecyl-9-(3,5-di-tert-butyl-4-hydroxyphenyl)-3,3,6,6-tetramethyl-3,4,6,7,9,10-hexahydroacridine-1,8(2H,5H)-dione]",–,62 μg sample per 1 μg of Trolox and 61.9 μg sample per 1 μg of Trolox,activation at 20 µM [4]: -46%
> 5,"CCCCCCCCCCCCN1C2=C(C(=O)CC(C(C)C)C2)C(c2ccc(O)c(OC)c2)C2=C1CC(C(C)C)CC2=O (centres unmarked) [Example 9, 10-dodecyl-9-(4-hydroxy-3-methoxyphenyl)-3,6-diisopropyl-3,4,6,7,9,10-hexahydroacridine-1,8(2H,5H)-dione]",–,1.57 μg sample per 1 μg of Trolox,activation at 10 µM [4]: -49%
